Results: patent publication US5830697A, “P-glycoprotein mutant resistant to cyclosporin modulation” (The Board of Trustees of the Leland Stanford Junior …, priority 1997, dated 1998)
Read-outs that look alike come from different tables or passages of the source. *1 amine or outer side, *2 acyl side, *3 side chain or, on linkers, in order; H or OH if unused. Where a SMILES comes first, the peptide text is derived from it. Bridges are numbered along the chain shown (N, C = ends). Roman numbers before positions name the chains, in order. [ ]: non-standard residue; d: D form. Actinocin(9to1) = Cc1c2oc3c(C)ccc(C(=O)[*:1])c3nc-2c(C(=O)[*:2])c(N)c1=O; NMeV = CN[C@H](C(=O)O)C(C)C; Sar = CNCC(=O)O

Key:
Experiment in all cases: Growth inhibition (MTT) assay, with or without MDR modulators
MES-SA/Dx5 (Dx5) cells = assay type: cell-based, human
Protocol: (§1) Cells and Tissue Culture. Details of the development and characterization of the human cell line MES-SA and its MDR variant MES-SA/Dx5 (D×5), which were derived from sarcoma elements of a uterine mixed Mullerian tumor, are described in Harker and Sikic (1985) Cancer Research 45:3810-3815. MES-SA/DxP5002 (DxP) cells were derived from Dx5.05 cells (D×5 cells selected and maintained at a DOX concentration of 0.5 μM) by step-wise selection in the presence of increasing DOX concentrations (from 40 nM up to 0.5 μM) and a constant PSC 833 concentration at 2 μM over a one-year period. Monolayer cultures of MES-SA cells and its variants were grown in McCoy's medium (Irvine Scientific, Santa Ana, Calif.) supplemented with 10% newborn calf serum (Gibco, Grand Island, N.Y.), 2 mM L-glutamine, and antibiotics(100 U/ml penicillin, 100 μg/ml streptomycin).
(§2) Growth Inhibition Assay. Approximately 8000 cells per well were seeded in 96 well plates and incubated with or without drugs for 72 hr at 37° C. in an atmosphere of 5% CO2. Growth inhibition was evaluated by the MTT colorimetric assay in triplicate or quadruplicate as previously described. The absorbance was measured with a ThermoMax microplate reader (Molecular Devices, Menlo Park, Calif.). The IC50 (drug concentration resulting in 50% inhibition of MTT dye formation, compared to controls) was determined directly from semi-logarithmic dose-response curves. The doubling times of MES-SA, D×5, and D×P were determined as previously described.
(§3) Reversal of MDR by Modulators. […] The modulation ratio was obtained by comparing IC50 s in the presence and absence of modulators.

MES-SA cells = assay type: cell-based, human; settings: for IC50: Homo sapiens, read-out: IC50 of drug-sensitive MES-SA cells (values in parenthesis)
Protocol: as §1, §2, §3

[1] = system: MES-SA/DxP5002 (DxP) cells; settings: for Level of resistance of DxP cells to the cytotoxin compared with parental Dx5 (in words) / Fold resistance: DxP cells; for Dx5/DxP, fold of resistance difference in DxP cells compared with parental Dx5 cells: DxP vs Dx5
Protocol: Cells and Tissue Culture. […] Monolayer cultures of MES-SA cells and its variants were grown in McCoy's medium (Irvine Scientific, Santa Ana, Calif.) supplemented with 10% newborn calf serum (Gibco, Grand Island, N.Y.), 2 mM L-glutamine, and antibiotics(100 U/ml penicillin, 100 μg/ml streptomycin).
as §2, with “The IC50 (drug concentration resulting in 50% inhibition of MTT dye formation, compared to controls) was determined directly from semi-logarithmic dose-response curves.” left out
as §3

[2] = no modulator, relative to MES-SA
[3] = MES-SA cells, no modulator, 72 hr MTT

Row | Compound | Fold resistance (MES-SA/Dx5 (Dx5) cells; [2]) [fold] | IC50 (MES-SA cells; MES-SA, 72 h) [µM] | Fold resistance (MES-SA cells; [3]) [fold] | Level of resistance of DxP cells to the cytotoxin compared with parental Dx5 (in words) [1] | Fold resistance [1, 2] [fold] | Dx5/DxP, fold of resistance difference in DxP cells compared with parental Dx5 cells [1] [fold] | Fold resistance (MES-SA/Dx5 (Dx5) cells; +2 μM PSC 833) [fold] | IC50 (MES-SA cells; MES-SA cells, 72 hr MTT) [µM] | Fold resistance (MES-SA cells; MES-SA cells, +2 μM PSC 833) [fold] | Fold resistance ([1]; +2 μM PSC 833) [fold] | Fold resistance (MES-SA/Dx5 (Dx5) cells; +6 μM Verapamil) [fold] | Fold resistance (MES-SA cells; MES-SA cells, +6 μM Verapamil) | Fold resistance ([1]; +6 μM Verapamil) [fold]
1 | Cc1c2oc3c(C)ccc(C(=O)N[C@@H]4C(=O)N[C@H](C(C)C)C(=O)N5CCC[C@H]5C(=O)N(C)CC(=O)N(C)[C@@H](C(C)C)C(=O)O[C@@H]4C)c3nc-2c(C(=O)N[C@@H]2C(=O)N[C@H](C(C)C)C(=O)N3CCC[C@H]3C(=O)N(C)CC(=O)N(C)[C@@H](C(C)C)C(=O)O[C@@H]2C)c(N)c1=O [D actinomycin, dactinomycin] (I: T[dV]P[Sar][NMeV] / II: T[dV]P[Sar][NMeV]; ester I:1-I:C, II:1-II:C; linker I:N-II:N via Actinocin(9to1)) | 183 | 0.0003 | 1 | completely restored | 1 | 183 |  |  |  |  |  |  | 
2 | COc1cc([C@@H]2c3cc4c(cc3[C@@H](O[C@@H]3O[C@@H]5CO[C@@H](C)O[C@H]5[C@H](O)[C@H]3O)[C@H]3COC(=O)[C@H]23)OCO4)cc(OC)c1O [Etoposide] | 42 |  | 1 | moderately decreased resistance |  | 2 | 1 | 0.5 | 1 | 18 |  |  | 
3 | COc1cc([C@@H]2c3cc4c(cc3[C@@H](O[C@@H]3O[C@@H]5CO[C@@H](c6cccs6)O[C@H]5[C@H](O)[C@H]3O)[C@H]3COC(=O)[C@H]23)OCO4)cc(OC)c1O [Teniposide] | 135 |  | 1 | moderately decreased resistance | 53 | 3 |  | 0.1 |  |  |  |  | 
4 | COc1cc2c(c(OC)c1OC)-c1ccc(OC)c(=O)cc1[C@@H](NC(C)=O)CC2 [Colchicine] |  |  |  | high levels of resistance |  |  |  |  |  |  |  |  | 
5 | CC[C@]1(O)C[C@H]2CN(CCc3c([nH]c4ccccc34)[C@@](C(=O)OC)(c3cc4c(cc3OC)N(C=O)[C@H]3[C@@](O)(C(=O)OC)[C@H](OC(C)=O)[C@]5(CC)C=CCN6CC[C@]43[C@@H]65)C2)C1 [Vincristine] | 199 |  | 1 |  | 8 | 25 | 1 | 0.002 | 0.7 | 7 | 7 | 0.3-1 fold | 3
